Data reported in patent US6737383B1, “Herbicidal oxadiazolidines” (priority 1999, dated 2004).

Key:
corn = assay: Test B pre/postemergence corn; type: in vivo, Zea mays
Method in brief: (§1)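 Response is a visual 0-to-10 score relative to untreated plants, where 0 means no effect and 10 means complete control, taken twelve to sixteen days after application. Treatments went onto soil at planting and onto foliage of 1- to 4-leaf plants, using a surfactant-containing non-phytotoxic solvent.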

surinam grass = assay: Test B pre/postemergence surinam grass; type: in vivo, Brachiaria decumbens
Method in brief: as §1

bedstraw = assay: Test B pre/postemergence bedstraw; type: in vivo, Galium aparine
Method in brief: as §1

crabgrass = assay: Test B pre/postemergence crabgrass; type: in vivo, Digitaria sanguinalis
Method in brief: as §1

[1] = Preemergence, Rate 62 g/ha, scale of 0 to 10 where 0 is no effect and 10 is complete control
[2] = Preemergence, Rate 250 g/ha, scale of 0 to 10 where 0 is no effect and 10 is complete control
[3] = Preemergence, Rate 500 g/ha, scale of 0 to 10 where 0 is no effect and 10 is complete control
[4] = Rate 62 g/ha, Postemergence, scale of 0 to 10 where 0 is no effect and 10 is complete control
[5] = Rate 125 g/ha, Postemergence, scale of 0 to 10 where 0 is no effect and 10 is complete control
[6] = Rate 125 g/ha, Preemergence, scale of 0 to 10 where 0 is no effect and 10 is complete control
[7] = Rate 250 g/ha, Postemergence, scale of 0 to 10 where 0 is no effect and 10 is complete control
[8] = Rate 500 g/ha, Postemergence, scale 0 to 10, 0 no effect, 10 complete control
[9] = Postemergence, Rate 31 g/ha, visual rating, scale 0 to 10 (0 no effect, 10 complete control)
[10] = Preemergence, Rate 31 g/ha, visual rating, scale 0 to 10 (0 no effect, 10 complete control)
[11] = Rate 62 g/ha, Postemergence, scale 0 to 10 (0 no effect, 10 complete control)

SMILES	Corn plant response rating (corn; [1])	Corn plant response rating (corn; [2])	Corn plant response rating (corn; [5])	Plant response rating, Corn (corn; [7])	Corn plant response rating (corn; [8])	B. signalgrass plant response rating (surinam grass; [1])	B. signalgrass plant response rating (surinam grass; [2])	B. signalgrass plant response rating (surinam grass; [5])	Plant response rating, B. signalgrass (surinam grass; [7])	Bedstraw plant response rating (bedstraw; [1])	Bedstraw plant response rating (bedstraw; [2])	Bedstraw plant response rating (bedstraw; [5])	Crabgrass plant response rating (crabgrass; [1])	Crabgrass plant response rating (crabgrass; [2])	Crabgrass plant response rating (crabgrass; [5])	Plant response rating, Crabgrass (crabgrass; [7])	Corn plant response rating (corn; [11])	B. signalgrass plant response rating (surinam grass; [11])	Bedstraw plant response rating (bedstraw; [11])	Crabgrass plant response rating (crabgrass; [11])	further results
Cc1ccccc1-n1c(=O)on(C(=O)N(c2ccc(Oc3ccccc3)cc2)C(C)C)c1=O [Compound 268]	0	0	0	0	3	0	0	0	0	0	0	0	0	0	0	0	–	–	–	–	Plant response rating, Corn (corn; [3]): 0; Corn plant response rating (corn; [4]): 0; Corn plant response rating (corn; [6]): 0; Plant response rating, B. signalgrass (surinam grass; [3]): 0; B. signalgrass plant response rating (surinam grass; [4]): 0; B. signalgrass plant response rating (surinam grass; [6]): 0; Plant response rating, Bedstraw (bedstraw; [3]): 0; Bedstraw plant response rating (bedstraw; [4]): 0; Bedstraw plant response rating (bedstraw; [6]): 0; Plant response rating, Bedstraw (bedstraw; [7]): 0; Plant response rating, Crabgrass (crabgrass; [3]): 0; Crabgrass plant response rating (crabgrass; [6]): 0; Crabgrass plant response rating (crabgrass; [8]): 0
CC(C)N(C(=O)n1oc(=O)n(CCCCF)c1=O)c1ccc(F)cc1 [Compound 289]	0	2	0	0	–	7	8	3	3	0	7	3	2	4	5	9	0	0	0	3	Corn plant response rating (corn; [9]): 0; Corn plant response rating (corn; [10]): 0; Corn plant response rating (corn; [6]): 0; B. signalgrass plant response rating (surinam grass; [9]): 0; B. signalgrass plant response rating (surinam grass; [10]): 2; B. signalgrass plant response rating (surinam grass; [6]): 7; Bedstraw plant response rating (bedstraw; [9]): 0; Bedstraw plant response rating (bedstraw; [10]): 0; Bedstraw plant response rating (bedstraw; [6]): 4; Plant response rating, Bedstraw (bedstraw; [7]): 8; Crabgrass plant response rating (crabgrass; [9]): 0; Crabgrass plant response rating (crabgrass; [10]): 1; Crabgrass plant response rating (crabgrass; [6]): 3
CCN(C(=O)n1oc(=O)n(C2CC2)c1=O)C1CCCCC1 [Compound 298]	0	0	0	0	0	0	0	0	0	–	–	0	0	0	0	0	0	0	0	0	Corn plant response rating (0 to 10 scale) (corn; Preemergence, Rate 125 g/ha): 0; Plant response rating, Corn (corn; [3]): 0; B. signalgrass plant response rating (0 to 10 scale, 0 is no effect, 10 is complete control) (surinam grass; Preemergence, Rate 125 g/ha): 0; Plant response rating, B. signalgrass (surinam grass; [3]): 0; B. signalgrass plant response rating (surinam grass; [8]): 0; Bedstraw plant response rating (0 to 10 scale) (bedstraw; Preemergence, Rate 125 g/ha): 0; Crabgrass plant response rating (0 to 10 scale) (crabgrass; Preemergence, Rate 125 g/ha): 0; Plant response rating, Crabgrass (crabgrass; [3]): 0
Cc1cccc(C(C)(C)C)c1-n1c(=O)on(C(=O)N(c2ccccc2)C(C)C)c1=O [Compound 303]	0	0	0	0	0	0	0	0	0	0	0	0	0	0	0	0	0	0	–	0	Corn plant response rating (0 to 10 scale) (corn; Preemergence, Rate 125 g/ha): 0; Corn plant response rating (corn; [3]): 0; B. signalgrass plant response rating (0 to 10 scale, 0 is no effect, 10 is complete control) (surinam grass; Preemergence, Rate 125 g/ha): 0; B. signalgrass plant response rating (surinam grass; [3]): 0; B. signalgrass plant response rating (surinam grass; [8]): 0; Bedstraw plant response rating (0 to 10 scale) (bedstraw; Preemergence, Rate 125 g/ha): 0; Bedstraw plant response rating (bedstraw; [8]): 0; Crabgrass plant response rating (0 to 10 scale) (crabgrass; Preemergence, Rate 125 g/ha): 0
CCc1cccc(CC)c1-n1c(=O)on(C(=O)N(c2ccc(F)cc2)C(C)C)c1=O [Compound 304]	0	0	0	0	0	0	0	0	0	0	0	0	3	6	0	0	0	0	0	0	Corn plant response rating (0 to 10 scale) (corn; Preemergence, Rate 125 g/ha): 0; Corn plant response rating (corn; [3]): 0; B. signalgrass plant response rating (0 to 10 scale, 0 is no effect, 10 is complete control) (surinam grass; Preemergence, Rate 125 g/ha): 0; B. signalgrass plant response rating (surinam grass; [3]): 0; B. signalgrass plant response rating (surinam grass; [8]): 0; Bedstraw plant response rating (0 to 10 scale) (bedstraw; Preemergence, Rate 125 g/ha): 0; Bedstraw plant response rating (bedstraw; [3]): 0; Crabgrass plant response rating (0 to 10 scale) (crabgrass; Preemergence, Rate 125 g/ha): 4; Crabgrass plant response rating (crabgrass; [3]): 8
CC(C)N(C(=O)n1oc(=O)n(Cc2ccccc2-c2ccccc2)c1=O)c1ccc(F)cc1 [Compound 313]	0	0	0	0	0	0	0	0	0	0	0	7	0	0	0	0	0	0	5	0	Corn plant response rating (0 to 10 scale) (corn; Preemergence, Rate 125 g/ha): 0; Corn plant response rating (corn; [3]): 0; B. signalgrass plant response rating (0 to 10 scale, 0 is no effect, 10 is complete control) (surinam grass; Preemergence, Rate 125 g/ha): 0; B. signalgrass plant response rating (surinam grass; [3]): 0; B. signalgrass plant response rating (surinam grass; [8]): 0; Bedstraw plant response rating (bedstraw; [3]): 0; Plant response rating, Bedstraw (bedstraw; [7]): 7; Crabgrass plant response rating (0 to 10 scale) (crabgrass; Preemergence, Rate 125 g/ha): 0; Crabgrass plant response rating (crabgrass; [3]): 0
CC(C)N(C(=O)n1oc(=O)n(Cc2nnsc2Cl)c1=O)c1ccc(F)cc1F [Compound 320]	0	0	0	0	0	0	2	0	0	0	–	0	2	3	0	0	0	0	0	0	Corn plant response rating (0 to 10 scale) (corn; Preemergence, Rate 125 g/ha): 0; Corn plant response rating (corn; [3]): 0; B. signalgrass plant response rating (0 to 10 scale, 0 is no effect, 10 is complete control) (surinam grass; Preemergence, Rate 125 g/ha): 1; B. signalgrass plant response rating (surinam grass; [3]): 3; B. signalgrass plant response rating (surinam grass; [8]): 0; Bedstraw plant response rating (bedstraw; [3]): 0; Crabgrass plant response rating (0 to 10 scale) (crabgrass; Preemergence, Rate 125 g/ha): 3; Crabgrass plant response rating (crabgrass; [3]): 7
